In patent US20160287589A1, “SUBSTITUTED-IMIDAZOPYRIDAZINES” (BAYER PHARMA AKTIENGESELLSCHAFT, priority 2013, published 2016) one finds IC50 data, which are given here for eleven compounds.

Assay [1] has as its target T1, MKNK1 (Homo sapiens, UniProt Q9BUB5, T385D).
T1 construct: GST (N); purchased Carna Biosciences 02-145; host or cells: insect cells (baculovirus expression system)
Description: MKNK1 kinase assay (MKNK1 TR-FRET assay). The assay is classed as biochemical. The conditions noted are these: 10 μM ATP, 15 min preincubation.

Assay [2] concerns the target T1, MKNK1. Description: MKNK1 kinase high ATP assay (TR-FRET-based). The conditions noted are these: 2 mM ATP, 15 min preincubation. It counts as biochemical. In a few lines: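 TR-FRET read-out (anti-phospho-S6 Ser236 antibody, Eu/XL665) of biotin-peptide phosphorylation (0.06 μM) at high ATP (2 mM final). Enzyme was GST-MKNK1 full length, T344D, pre-bound to compound for 15 min before a 30 min reaction at 22 °C, pH 7.5. Inhibition scaled between no-inhibitor (0%) and no-enzyme (100%) wells.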
(In general: In TR-FRET formats the signal depends on donor and acceptor labels being close together.)

T1 sequence (Q9BUB5 1-424 isoform Q9BUB5-2 T344D): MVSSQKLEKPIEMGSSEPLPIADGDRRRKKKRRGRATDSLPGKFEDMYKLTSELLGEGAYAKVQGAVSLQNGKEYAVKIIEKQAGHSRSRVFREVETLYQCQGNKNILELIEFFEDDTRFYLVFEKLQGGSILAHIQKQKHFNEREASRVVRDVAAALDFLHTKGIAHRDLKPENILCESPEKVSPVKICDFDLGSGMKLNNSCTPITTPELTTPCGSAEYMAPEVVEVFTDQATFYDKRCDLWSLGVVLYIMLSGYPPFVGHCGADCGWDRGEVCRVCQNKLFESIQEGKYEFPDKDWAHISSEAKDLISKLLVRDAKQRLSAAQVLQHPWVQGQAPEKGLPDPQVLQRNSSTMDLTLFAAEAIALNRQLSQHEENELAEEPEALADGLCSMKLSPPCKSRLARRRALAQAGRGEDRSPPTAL

In the case of `COCCN(C)c1nccc2oc(-c3cnc4ccc(OC[C@H](C)N)nn34)cc12` [III-16, 2-(6-{[(2S)-2-Aminopropyl]oxy}imidazo[1,2-b]pyridazin-3-yl)-N-(2-methoxyethyl)-N-methylfuro[3,2-c]pyridin-4-amine], the IC50 – broadly, the midpoint of a concentration-inhibition curve – stood at 2.1 nM at MKNK1 [1] (Table 1c) and 6 nM on MKNK1 [2] (Table 2c).
For `CN(CCCO)c1nccc2oc(-c3cnc4ccc(O[C@H]5C[C@H](N)C5)nn34)cc12` [III-105, 3-[(2-{6-[(trans-3-Aminocyclobutyl)oxy]imidazo[1,2-b]pyridazin-3-yl}furo-[3,2-c]pyridin-4-yl)(methyl)amino]propan-1-ol], in that order: 2.1 nM and 7.3 nM.
For the compound `C[C@H](N)COc1ccc2ncc(-c3cc4c(N(C)C5CCN(C)CC5)nccc4o3)n2n1` [III-13, 2-(6-{[(2S)-2-Aminopropyl]oxy}imidazo[1,2-b]pyridazin-3-yl)-N-methyl-N-(1-methylpiperidin-4-yl)furo[3,2-c]pyridin-4-amine], the IC50 was 13 nM on MKNK1 [1] (Table 1c) and 62 nM against MKNK1 [2] (Table 2c).
Turning to `C[C@@H](N)COc1ccc2ncc(-c3cc4c(N5CCO[C@@H](C)C5)cccc4o3)n2n1` [II-76, (2R)-1-[(3-{4-[(2S)-2-methylmorpholin-4-yl]-1-benzofuran-2-yl}imidazo[1,2-b]pyridazin-6-yl)oxy]propan-2-amine], the figures for the IC50 on MKNK1 [1] (Table 1b) and at MKNK1 [2] (Table 2b) were 6.9 nM and 18.4 nM, respectively.
As for `CN(C)[C@@H]1CCN(c2nccc3oc(-c4cnc5ccc(O[C@H]6C[C@H](N)C6)nn45)cc23)C1` [III-98, (3R)-1-(2-{6-[(trans-3-Aminocyclobutyl)oxy]imidazo[1,2-b]pyridazin-3-yl}furo[3,2-c]pyridin-4-yl)-N,N-dimethylpyrrolidin-3-amine], the IC50 at MKNK1 [1] (Table 1c) is 1.6 nM; against MKNK1 [2] (Table 2c), 3.3 nM.
With `C[C@H]1CNCCN1c1cccc2oc(-c3cnc4ccc(OC[C@H]5CCC(=O)N5)nn34)cc12` [II-30, (5R)-5-{[(3-{4-[(2S)-2-methylpiperazin-1-yl]-1-benzofuran-2-yl}imidazo[1,2-b]pyridazin-6-yl)oxy]methyl}pyrrolidin-2-one], the IC50 against MKNK1 [1] (Table 1b) came out at 2.3 nM; against MKNK1 [2] (Table 2b), 0.6 nM.
For `COC[C@@H]1CCCN1c1nccc2oc(-c3cnc4ccc(OC[C@H](C)N)nn34)cc12` [III-27, (2S)-1-[(3-{4-[(2S)-2-(Methoxymethyl)pyrrolidin-1-yl]furo[3,2-c]pyridin-2-yl}imidazo[1,2-b]pyridazin-6-yl)oxy]propan-2-amine], the values for the IC50 against MKNK1 [1] (Table 1c) and on MKNK1 [2] (Table 2c) were 31.1 nM and 97.5 nM, respectively.
For `CS(=O)(=O)CCCOc1ccc2ncc(-c3cc4c(N5CCOCC5)nccc4o3)n2n1` [III-42, 6-[3-(Methylsulfonyl)propoxy]-3-[4-(morpholin-4-yl)furo[3,2-c]pyridin-2-yl]imidazo[1,2-b]pyridazine], in that order: 2.2 nM and 4.7 nM.
Consider `COCCN(C)c1nccc2oc(-c3cnc4ccc(OC[C@H]5CCC(=O)N5)nn34)cc12` [III-81, (5R)-5-{[(3-{4-[(2-Methoxyethyl)(methyl)amino]furo[3,2-c]pyridin-2-yl}imidazo[1,2-b]pyridazin-6-yl)oxy]methyl}pyrrolidin-2-one], for which the figures for the IC50 against MKNK1 [1] (Table 1c) and on MKNK1 [2] (Table 2c) were 0.3 nM and 0.5 nM, respectively.
Consider `C[C@H](N)COc1ccc2ncc(-c3cc4c(N5CCOC(C)(C)C5)cccc4o3)n2n1` [II-61, (2S)-1-({3-[4-(2,2-dimethylmorpholin-4-yl)-1-benzofuran-2-yl]imidazo[1,2-b]pyridazin-6-yl}oxy)propan-2-amine], for which the IC50 on MKNK1 [1] (Table 1b) worked out at 23.6 nM; against MKNK1 [2] (Table 2b) it was 66.2 nM.
Turning to `CC(=O)N[C@H]1C[C@H](Oc2ccc3ncc(-c4cc5ccccc5o4)n3n2)C1` [Example I-11, N-(trans-3-{[3-(1-Benzofuran-2-yl)imidazo[1,2-b]pyridazin-6-yl]oxy}cyclobutyl)-acetamide], the IC50 came out at 2.9 nM against MKNK1 [1] (Table 1a) and 10 nM at MKNK1 [2] (Table 2a).
